Assay results from the supplement of paper PMC8976852.
± gives the standard deviation of the averaged measurements.

What was measured:
Assay in all cases: activity (1 - area under the dose-response curve within the screened range) (fraction); higher = more sensitive
Conditions in all cases: treatment time: 72 h
HCM-SANG-0291-C15 = system: HCM-SANG-0291-C15 (oesophageal cancer organoid)
Outline: (§1)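 Colorectal and oesophageal cancer organoids derived from patients were grown in 5% or 80% ECM (BME-2) and later seeded on an ECM layer in 384-well plates for a 3-day treatment with a 7-point half-log dilution series. Curves were fitted with a non-linear mixed effects model, and fits whose RMSE exceeded 0.3 were excluded. Activity was defined as the complement of the area beneath each fitted curve within the screened dose range.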

HCM-SANG-0532-C20 = system: HCM-SANG-0532-C20 (colorectal cancer organoid)
Outline: as §1

HCM-SANG-0266-C20 = system: HCM-SANG-0266-C20 (colorectal cancer organoid)
Outline: as §1

HCM-SANG-0270-C20 = system: HCM-SANG-0270-C20 (colorectal cancer organoid)
Outline: as §1

[1] = ECM percentage in culture prior to screening 5 %
[2] = ECM percentage in culture prior to screening 80 %

Structure (SMILES) | activity (HCM-SANG-0291-C15; [1]) | activity (HCM-SANG-0291-C15; [2]) | activity (HCM-SANG-0532-C20; [1]) | activity (HCM-SANG-0532-C20; [2]) | activity (HCM-SANG-0266-C20; [1]) | activity (HCM-SANG-0266-C20; [2]) | activity (HCM-SANG-0270-C20; [1]) | activity (HCM-SANG-0270-C20; [2])
C[C@]12CC[C@@H]3c4ccc(O)cc4C[C@@H](CCCCCCCCC[S+]([O-])CCCC(F)(F)C(F)(F)F)[C@H]3[C@@H]1CC[C@@H]2O (stereo partly drawn) [Fulvestrant] | 0.0285 ± 0.013 | 0.0212 ± 0.0031 | 0.022 ± 0.0021 | 0.0273 ± 0.0072 | 0.0414 ± 0.019 | 0.0246 ± 0.0074 | 0.0292 ± 0.0081 | 0.0268 ± 0.015
CCN(CC)CCCCNc1ncc2cc(-c3cc(OC)cc(OC)c3)c(NC(=O)NC(C)(C)C)nc2n1 | 0.0598 ± 0.031 | 0.0496 ± 0.0089 | 0.0936 ± 0.015 | 0.0708 ± 0.015 | 0.0628 ± 0.031 | 0.0486 ± 0.023 | 0.0417 ± 0.029 | 0.0362 ± 0.015
COc1cc2nccc(Oc3ccc(NC(=O)Nc4cc(C)on4)c(Cl)c3)c2cc1OC [Tivozanib] | 0.0202 ± 0.0045 | 0.0228 ± 0.0062 | 0.0321 ± 0.016 | 0.0237 ± 0.0055 | 0.0203 ± 0.0013 | 0.0214 ± 0.0013 | 0.0217 ± 0.0076 | 0.0262 ± 0.01
COc1ccc(C2=N[C@@H](c3ccc(Cl)cc3)[C@@H](c3ccc(Cl)cc3)N2C(=O)N2CCNC(=O)C2)c(OC(C)C)c1 [Nutlin-3a (-)] | 0.0424 ± 0.021 | 0.0359 ± 0.015 | 0.148 ± 0.039 | 0.203 ± 0.054 | 0.218 ± 0.046 | 0.193 ± 0.064 | 0.161 ± 0.034 | 0.0722 ± 0.033
C=CCn1c(=O)c2cnc(Nc3ccc(N4CCN(C)CC4)cc3)nc2n1-c1cccc(C(C)(C)O)n1 [MK-1775] | 0.257 ± 0.036 | 0.24 ± 0.051 | 0.156 ± 0.019 | 0.19 ± 0.027 | 0.407 ± 0.048 | 0.348 ± 0.044 | 0.255 ± 0.042 | 0.205 ± 0.11
CC(C)(C)c1nc(-c2cccc(NS(=O)(=O)c3c(F)cccc3F)c2F)c(-c2ccnc(N)n2)s1 [Dabrafenib] | 0.0243 ± 0.0054 | 0.0207 ± 0.0019 | 0.0306 ± 0.018 | 0.0604 ± 0.032 | 0.138 ± 0.084 | 0.0841 ± 0.044 | 0.035 ± 0.012 | 0.0243 ± 0.0073
